Measured values as given in patent publication US8029795B2, “Targeted iron chelator delivery system” (Gwathmey, Inc., priority 1999, dated 2011).

How the values were obtained:
[1] = al-Refaie et al. 1992; cited from earlier work
[2] = design: species or system Sprague Dawley rats; settings: rat, in vivo
Source text: Sprague Dawley rats (n=130) were obtained from Charles River Laboratories and were iron overloaded by twelve week administration of iron in the feed. The rats were divided into the following groups: • (i) overloaded (O), • (ii) liposomes injected (OL), • (iii) overloaded animals with liposome entrapped desferrioxamine (OLD), and • (iv) overloaded with desferrioxamine (OD).
All control groups were pooled as there were not significant differences between the groups of normal non-treated controls. Range for iron was 35-150 μg/gram dry weight (human assay lab). A hepatic index of 1.0 is normal and results of 1.0-1.9 are described as nonspecific iron accumulation (human standards). […] FIGS. 4 and 5 show myocardial tissue from rat with iron overload.

[3] = background statement; cited from earlier work

Structure (SMILES)	severe agranulocytosis, share of patients [1]	toxic effects in control rats [2]	oral absorption [3]
Cc1c(O)c(=O)ccn1C [deferiprone]	about 2%	–	–
CC(=O)N(O)CCCCCNC(=O)CCC(=O)N(O)CCCCCNC(=O)CCC(=O)N(O)CCCCCN [desferrioxamine]	–	Neither liposomes nor desferrioxamine (DFO) had toxic effects	very low
